Measurements: PubChem BioAssay AID1259407 (Chemical Carcinogenesis Research Information System (CCRIS), 2018)
Active and inactive are the calls of the source. No rule for the calls is given here.

Test system: CCRIS mutagenicity, Ames/micronucleus/aberration tests
Assay: CCRIS mutagenicity studies
[1] = Test System: AMES SALMONELLA TYPHIMURIUM, Strain/Indicator: TA100, Metabolic Activation: RAT, LIVER, S-9, AROCLOR 1254, Method: PREINCUBATION
[2] = Test System: AMES SALMONELLA TYPHIMURIUM, Strain/Indicator: TA98, Metabolic Activation: NONE, Method: PREINCUBATION
[3] = Test System: AMES SALMONELLA TYPHIMURIUM, Strain/Indicator: TA98, Metabolic Activation: RAT, LIVER, S-9, AROCLOR 1254, Method: PREINCUBATION
[4] = Test System: AMES SALMONELLA TYPHIMURIUM, Strain/Indicator: TA100, Metabolic Activation: NONE, Method: PREINCUBATION
[5] = Test System: AMES SALMONELLA TYPHIMURIUM, Strain/Indicator: TA98, Metabolic Activation: NONE, Method: STANDARD PLATE
[6] = Test System: AMES SALMONELLA TYPHIMURIUM, Strain/Indicator: TA98, Metabolic Activation: RAT, LIVER, S-9, AROCLOR 1254, Method: STANDARD PLATE
[7] = Test System: AMES SALMONELLA TYPHIMURIUM, Strain/Indicator: TA100, Metabolic Activation: NONE, Method: STANDARD PLATE
[8] = Test System: AMES SALMONELLA TYPHIMURIUM, Strain/Indicator: TA100, Metabolic Activation: RAT, LIVER, S-9, AROCLOR 1254, Method: STANDARD PLATE
[9] = Test System: AMES SALMONELLA TYPHIMURIUM, Strain/Indicator: TA1535, Metabolic Activation: NONE, Method: STANDARD PLATE
[10] = Test System: AMES SALMONELLA TYPHIMURIUM, Strain/Indicator: TA1538, Metabolic Activation: NONE, Method: STANDARD PLATE

**Q.** With `Fc1ccc2cccnc2c1` as the molecule, how does the mutagenic call (Test System: AMES SALMONELLA TYPHIMURIUM, Strain/Indicator: TA100, Metabolic Activation: RAT LIVER S-9, PHENOBARBITAL AND 5,6-BENZOFLAVONE, Method: PREINCUBATION) read?
**A.** active; positive

**Q.** And the mutagenic call [1]?
**A.** active; positive

**Q.** What about the mutagenic call (Test System: UDS RODENT HEPATOCYTES, Strain/Indicator: THY INCORP (NON-S-PHASE), Metabolic Activation: NONE, Method: AUTORADIOGRAPHY) of the same molecule?
**A.** active; positive

**Q.** For `N#[N+]c1cnc([O-])[nH]c1=O`, which mutagenic call [2] is on record?
**A.** active; positive

**Q.** What about the mutagenic call [3] of the same molecule?
**A.** active; positive

**Q.** And the mutagenic call [4]?
**A.** active; positive

**Q.** And the mutagenic call [1]?
**A.** active; positive

**Q.** `CC(C)C[C@H]1C(=O)N2CCC[C@H]2[C@]2(O)O[C@](NC(=O)[C@@H]3C[C@@H]4c5cccc6[nH]cc(c56)C[C@H]4N(C)C3)(C(C)C)C(=O)N12` was tested. Which mutagenic call [5] did it give?
**A.** inactive; negative

**Q.** What about the mutagenic call [6] of the same molecule?
**A.** inactive; negative

**Q.** What about the mutagenic call [7] of the same molecule?
**A.** inactive; negative

**Q.** And the mutagenic call [8]?
**A.** inactive; negative

**Q.** And the mutagenic call [9]?
**A.** inactive; negative

**Q.** And the mutagenic call (Test System: AMES SALMONELLA TYPHIMURIUM, Strain/Indicator: TA1535, Metabolic Activation: RAT, LIVER, S-9, AROCLOR 1254, Method: STANDARD PLATE)?
**A.** inactive; negative

**Q.** What about the mutagenic call (Test System: AMES SALMONELLA TYPHIMURIUM, Strain/Indicator: TA1537, Metabolic Activation: NONE, Method: STANDARD PLATE) of the same molecule?
**A.** inactive; negative

**Q.** What about the mutagenic call (Test System: AMES SALMONELLA TYPHIMURIUM, Strain/Indicator: TA1537, Metabolic Activation: RAT, LIVER, S-9, AROCLOR 1254, Method: STANDARD PLATE) of the same molecule?
**A.** inactive; negative

**Q.** And the mutagenic call [10]?
**A.** inactive; negative

**Q.** What about the mutagenic call (Test System: AMES SALMONELLA TYPHIMURIUM, Strain/Indicator: TA1538, Metabolic Activation: RAT, LIVER, S-9, AROCLOR 1254, Method: STANDARD PLATE) of the same molecule?
**A.** inactive; negative

**Q.** What about the mutagenic call (Test System: MOUSE LYMPHOMA, Strain/Indicator: L5178Y (TK+/TK-), Metabolic Activation: NONE, Method: SUSPENSION/PLATE) of the same molecule?
**A.** inactive; negative

**Q.** What about the mutagenic call (Test System: MOUSE LYMPHOMA, Strain/Indicator: L5178Y (TK+/TK-), Metabolic Activation: RAT, LIVER, S-9, AROCLOR 1254, Method: SUSPENSION/PLATE) of the same molecule?
**A.** inactive; negative

**Q.** What about the mutagenic call (Test System: UDS RAT HEPATOCYTES, Strain/Indicator: THY INCORP, Metabolic Activation: NONE) of the same molecule?
**A.** inactive; negative

**Q.** `OCCN(CCO)c1ccc2ccccc2c1` was tested. Which mutagenic call [7] did it give?
**A.** inactive; negative

**Q.** And the mutagenic call (Test System: AMES SALMONELLA TYPHIMURIUM, Strain/Indicator: TA100, Metabolic Activation: RAT, LIVER, S-9, AROCLOR (10%), Method: STANDARD PLATE)?
**A.** active; positive

**Q.** Which results are given for `N[C@@H](CSC(F)(F)C(F)F)C(=O)O`?
**A.** mutagenic call (Test System: AMES SALMONELLA TYPHIMURIUM, Strain/Indicator: TA100, Metabolic Activation: RAT, KIDNEY, S-9, AROCLOR 1254, Method: STANDARD PLATE): inactive; negative; mutagenic call (Test System: AMES SALMONELLA TYPHIMURIUM, Strain/Indicator: TA2638, Metabolic Activation: NONE, Method: PREINCUBATION): inactive; negative

**Q.** Which mutagenic call [2] does the source give for `O[C@H]1[C@@H]2O[C@@H]2c2c(ccc3cc4c(ccc5ccccc54)nc23)[C@@H]1O` here?
**A.** active; positive

**Q.** And the mutagenic call (Test System: AMES SALMONELLA TYPHIMURIUM, Strain/Indicator: TA98, Metabolic Activation: RAT, LIVER, AROCLOR 1254, NADPH GENERATING SYSTEM, Method: STANDARD PLATE)?
**A.** active; positive

**Q.** And the mutagenic call [4]?
**A.** active; positive

**Q.** What about the mutagenic call (Test System: AMES SALMONELLA TYPHIMURIUM, Strain/Indicator: TA100, Metabolic Activation: RAT, LIVER, AROCLOR 1254, NADPH GENERATING SYSTEM, Method: STANDARD PLATE) of the same molecule?
**A.** active; positive

**Q.** What about the mutagenic call (Test System: CHINESE HAMSTER V-79, Strain/Indicator: V-79/8-AZAGUANINE, Metabolic Activation: NONE) of the same molecule?
**A.** active; positive

**Q.** What about the mutagenic call (Test System: CHINESE HAMSTER V-79, Strain/Indicator: V-79/8-AZAGUANINE, Method: STANDARD PLATE) of the same molecule?
**A.** active; positive

**Q.** How did the mutagenic call (End Point: IN VITRO CHROMOSOMAL ABERRATIONS, Test System: CHE CELLS, Metabolic Activation: NONE, Method: FISH (METAPHASE)) turn out when `CN(N=O)C(=O)N[C@@H](C=O)[C@@H](O)[C@H](O)[C@H](O)CO` was run?
**A.** active; positive (structural changes)

**Q.** What about the mutagenic call (Test System: AMES SALMONELLA TYPHIMURIUM, Strain/Indicator: TA97, Metabolic Activation: NONE, Method: STANDARD PLATE) of the same molecule?
**A.** active; positive

**Q.** What about the mutagenic call (Test System: AMES SALMONELLA TYPHIMURIUM, Strain/Indicator: TA97, Metabolic Activation: RAT, LIVER, S-9, AROCLOR 1254, Method: STANDARD PLATE) of the same molecule?
**A.** inactive; negative

**Q.** And the mutagenic call [5]?
**A.** inactive; negative

**Q.** What about the mutagenic call [6] of the same molecule?
**A.** inactive; negative

**Q.** What about the mutagenic call [7] of the same molecule?
**A.** active; positive

**Q.** What about the mutagenic call [8] of the same molecule?
**A.** inactive; negative

**Q.** What about the mutagenic call [9] of the same molecule?
**A.** active; positive

**Q.** And the mutagenic call (Test System: CHINESE HAMSTER OVARY, Strain/Indicator: CHO-9 (HPRT), Metabolic Activation: NONE)?
**A.** active; positive

**Q.** What about the mutagenic call (Test System: CHINESE HAMSTER OVARY, Strain/Indicator: CHO-9/OUABAIN, Metabolic Activation: NONE) of the same molecule?
**A.** active; positive

**Q.** And the mutagenic call (Test System: CHINESE HAMSTER OVARY, Strain/Indicator: CHO-K1-BH4 (HGPRT), Metabolic Activation: NONE, Method: SUSPENSION/PLATE)?
**A.** active; positive

**Q.** And the mutagenic call (Test System: CHINESE HAMSTER OVARY, Strain/Indicator: EM-C11 (HPRT), Metabolic Activation: NONE)?
**A.** active; positive

**Q.** What about the mutagenic call (Test System: CHINESE HAMSTER OVARY, Strain/Indicator: EM-C11/OUABAIN, Metabolic Activation: NONE) of the same molecule?
**A.** active; positive

**Q.** What about the mutagenic call (Test System: CHINESE HAMSTER V-79, Strain/Indicator: V-79/6-THIOGUANINE, Metabolic Activation: NONE, Method: STANDARD PLATE) of the same molecule?
**A.** active; positive

**Q.** And the mutagenic call (Test System: CHINESE HAMSTER V-79, Strain/Indicator: V-79/8-AZAGUANINE, Metabolic Activation: NONE, Method: STANDARD PLATE)?
**A.** active; positive

**Q.** And the mutagenic call (Test System: E. COLI, Strain/Indicator: WP2 (HCR), Metabolic Activation: NONE, Method: STANDARD PLATE)?
**A.** active; positive

**Q.** `CC1=C[C@H](O)[C@H]2C[C@@H]1C2(C)C` was tested. Which mutagenic call [5] did it give?
**A.** inactive; negative

**Q.** What about the mutagenic call (Test System: AMES SALMONELLA TYPHIMURIUM, Strain/Indicator: TA98, Metabolic Activation: RAT, LIVER, S-9, Method: STANDARD PLATE) of the same molecule?
**A.** inactive; negative

**Q.** And the mutagenic call [7]?
**A.** inactive; negative

**Q.** And the mutagenic call (Test System: AMES SALMONELLA TYPHIMURIUM, Strain/Indicator: TA100, Metabolic Activation: RAT, LIVER, S-9, Method: STANDARD PLATE)?
**A.** inactive; negative

**Q.** What about the mutagenic call [9] of the same molecule?
**A.** inactive; negative

**Q.** What about the mutagenic call (Test System: AMES SALMONELLA TYPHIMURIUM, Strain/Indicator: TA1535, Metabolic Activation: RAT, LIVER, S-9, Method: STANDARD PLATE) of the same molecule?
**A.** inactive; negative

**Q.** And the mutagenic call [10]?
**A.** inactive; negative

**Q.** And the mutagenic call (Test System: AMES SALMONELLA TYPHIMURIUM, Strain/Indicator: TA1538, Metabolic Activation: RAT, LIVER, S-9, Method: STANDARD PLATE)?
**A.** inactive; negative

**Q.** What does the source list for `[CH3][Pb]([CH3])([CH3])[CH3]`?
**A.** mutagenic call (Test System: AMES SALMONELLA TYPHIMURIUM, Strain/Indicator: TA98, Metabolic Activation: HAMSTER, LIVER, S-9, AROCLOR 1254, Method: PREINCUBATION): inactive; negative; mutagenic call [2]: inactive; negative; mutagenic call [3]: inactive; negative; mutagenic call (Test System: AMES SALMONELLA TYPHIMURIUM, Strain/Indicator: TA100, Metabolic Activation: HAMSTER, LIVER, S-9, AROCLOR 1254, Method: PREINCUBATION): inactive; negative; mutagenic call [4]: inactive; negative; mutagenic call [1]: inactive; negative; mutagenic call (Test System: AMES SALMONELLA TYPHIMURIUM, Strain/Indicator: TA1535, Metabolic Activation: HAMSTER, LIVER, S-9, AROCLOR 1254, Method: PREINCUBATION): inactive; negative; mutagenic call (Test System: AMES SALMONELLA TYPHIMURIUM, Strain/Indicator: TA1535, Metabolic Activation: NONE, Method: PREINCUBATION): inactive; negative; mutagenic call (Test System: AMES SALMONELLA TYPHIMURIUM, Strain/Indicator: TA1535, Metabolic Activation: RAT, LIVER, S-9, AROCLOR 1254, Method: PREINCUBATION): inactive; negative; mutagenic call (Test System: AMES SALMONELLA TYPHIMURIUM, Strain/Indicator: TA1537, Metabolic Activation: HAMSTER, LIVER, S-9, AROCLOR 1254, Method: PREINCUBATION): inactive; negative; mutagenic call (Test System: AMES SALMONELLA TYPHIMURIUM, Strain/Indicator: TA1537, Metabolic Activation: NONE, Method: PREINCUBATION): inactive; negative; mutagenic call (Test System: AMES SALMONELLA TYPHIMURIUM, Strain/Indicator: TA1537, Metabolic Activation: RAT, LIVER, S-9, AROCLOR 1254, Method: PREINCUBATION): inactive; negative
